# Reference: patent publication US10092002B2, “Herbicidal composition comprising nicosulfuron or its salt and S -metolachlor or its salt” (ISHIHARA SANGYO KAISHA, LTD., priority 2011, dated 2018)
# What was measured:
# Format in all cases: in vivo
# [1] = tested on: annual bluegrass (Poa annua L.) having lowered sensitivity to herbicides; assay: Test Example 8: foliar treatment of annual bluegrass having lowered sensitivity to herbicides, visual growth inhibition rate; settings: foliar treatment at 5 to 6-leaf stage, 14th day after treatment
# Description: When the herbicidal activity in a case where two active ingredients are combined, is larger than the simple sum of the respective herbicidal activities of the two active ingredients (the expected activity), it is called a synergistic effect. The activity expected by the combination of two active ingredients can be calculated as follows (Colby S. R., “Weed”, vol. 15, p. 20-22, 1967). E1=α+β−(α×β÷100)
# Growth inhibition rate (%)=0 (equivalent to the non-treated area) to 100 (complete kill)
# Upland field soil was put into a 1/1,000,000 ha pot, and seeds of annual bluegrass (Poa annua L.) having lowered sensitivity to herbicides were sown. When the annual bluegrass reached 5 to 6-leaf stage, predetermined amounts of ONEHOPE NYUZAI (tradename) and Dual Gold (tradename) were diluted with water (corresponding to 300 L/ha) and applied for foliar treatment by a small sprayer.
# The growth inhibition rate (%) (measured value) and the growth inhibition rate (%) calculated in the same manner as in Test Example 1 are shown in Table 9.
# [2] = tested on: summergrass (Digitaria ciliaris (Retz.) Koel); assay: Test Example 5: foliar treatment of summergrass in 7 to 9-leaf stage, visual growth inhibition rate; settings: foliar treatment at 7 to 9-leaf stage, 14th day after treatment
# Description: When the herbicidal activity in a case where two active ingredients are combined, is larger than the simple sum of the respective herbicidal activities of the two active ingredients (the expected activity), it is called a synergistic effect. The activity expected by the combination of two active ingredients can be calculated as follows (Colby S. R., “Weed”, vol. 15, p. 20-22, 1967). E1=α+β-(α×β÷100) On the 22nd day after treatment, the state of growth of the common cocklebur was visually observed to determine the growth inhibition rate in accordance with the following evaluation standard. The growth inhibition rate (%) (measured value) and the growth inhibition rate (%) (calculated value) calculated by the Colby's formula are shown in Table 1. […] Upland field soil was put into a 1/1,000,000 ha pot, and seeds of summergrass (Digitaria ciliaris (Retz.) Koel) were sown. When the summergrass reached 7 to 9-leaf stage, predetermined amounts of […] Dual Gold (tradename) were diluted with water (corresponding to 300 L/ha) and applied for foliar treatment by a small sprayer. On the 14th day after treatment, the state of growth of the summergrass was visually observed to determine the growth inhibition rate.
# [3] = tested on: common cocklebur (Xanthium strumarium L.); assay: Test Example 1: foliar treatment of common cocklebur in pots, visual growth inhibition rate; settings: foliar treatment at 4.3 to 4.8-leaf stage, 22nd day after treatment
# Description: When the herbicidal activity in a case where two active ingredients are combined, is larger than the simple sum of the respective herbicidal activities of the two active ingredients (the expected activity), it is called a synergistic effect. The activity expected by the combination of two active ingredients can be calculated as follows (Colby S. R., “Weed”, vol. 15, p. 20-22, 1967). E1=α+β-(α×β÷100) In a case where three active ingredients are combined, the activity can be similarly calculated as follows. […] Upland field soil was put into a 1/1,000,000 ha pot, and seeds of common cocklebur (Xanthium strumarium L.) were sown. […] Dual Gold, manufactured by Syngenta Crop Protection AG), SC agent containing terbuthylazine as an active ingredient (tradename: Click, manufactured by BASF), SC agent containing mesotrione as an active ingredient (tradename: Callisto, manufactured by Syngenta Crop Protection AG) and WG agent containing prosulfuron as an active ingredient (tradename: Peak, manufactured by Syngenta Crop Protection AG) were diluted with water in an amount corresponding to 1,000 Uha, and applied for foliar treatment by a small sprayer. On the 22nd day after treatment, the state of growth of the common cocklebur was visually observed to determine the growth inhibition rate in accordance with the following evaluation standard. The growth inhibition rate (%) (measured value) and the growth inhibition rate (%) (calculated value) calculated by the Colby's formula are shown in Table 1.
Molecule,"inhibition at 100 g/ha ([1]; Poa annua, dose 100 g/ha, read-out: Growth inhibition rate (%) of annual bluegrass, Measured value) [%]","inhibition at 15 g/ha ([2]; Digitaria ciliaris, dose 15 g/ha, read-out: Growth inhibition rate (%) of summergrass, Measured value) [%]","inhibition at 30 g/ha ([3]; Xanthium strumarium, dose 30 g/ha, read-out: Growth inhibition rate (%) of common cocklebur, Measured value) [%]","Growth inhibition rate (%) of annual bluegrass, Measured value ([1]; dose 1000 g/ha) [%]","Growth inhibition rate (%) of annual bluegrass, Measured value ([1]; dose 2000 g/ha) [%]","Growth inhibition rate (%) of summergrass, Measured value ([2]; dose 500 g/ha) [%]","Growth inhibition rate (%) of summergrass, Measured value ([2]; dose 2000 g/ha) [%]","Growth inhibition rate (%) of common cocklebur, Measured value ([3]; dose 1000 g/ha) [%]"
"COc1cc(OC)nc(NC(=O)NS(=O)(=O)c2ncccc2C(=O)N(C)C)n1 [Nicosulfuron, 2-(4,6-dimethoxypyrimidin-2-ylcarbamoylsulfamoyl)-N,N-dimethylnicotinamide]",87,53,0,–,–,–,–,–
"a mixture of (aRS,1S)-2-chloro-6′-ethyl-N-(2-methoxy-1-methylethyl)aceto-o-toluidide (80 to 100%) and (aRS,1R)-2-chloro-6′-ethyl-N-(2-methoxy-1-methylethyl)aceto-o-toluidide (20 to 0%) [S-metolachlor]",–,–,–,18,28,0,0,0
